Experimental data reported in patent US7858125B2, “Multi-component biocide composition for wood protection” (priority 2006, dated 2010).

Experiments:
Coptotermes formosans = experiment: Termite bioassay, no-choice test procedure; assay type: in vivo; details: dip-treated southern yellow pine blocks, 1 gram of termites, four weeks, 27° C., 80% RH
Method: In this Example, various concentrations of a biocide composition were evaluated for its ability to inhibit termite infestation. The ability of the biocide composition was then compared to the ability of disodium octaborate tetrahydrate, a borate component, alone and an untreated control to inhibit termite infestation. Specifically, samples of the subterranean termite, Coptotermes formosans, were collected at the Formosan Termite Research Facility at McNeill, Miss. for a termite bioassay. To begin the termite bioassay, pre-weighed and pre-conditioned southern yellow pine blocks (1×1×1 centimeter) (n=5) were dip-treated with two concentrations of a biocide composition. A first control sample (Control A) was prepared by dipping blocks into DI water. A second control sample (Control B) was prepared by dipping the blocks into 0.28% (by weight) disodium octaborate tetrahydrate. […] Each block was conditioned to ensure all solvent had dissipated prior to being subjected to a termite bioassay according to no-choice test procedure (ASTM 1998). […] Damp filter paper was placed into the lid of each dish to help maintain humidity during a four-week incubation at 27° C. and 80% relative humidity. The dishes were examined daily and mortality of the termites was recorded. […]

[1] = system: mixed spore preparation of Aspergillus niger, Penicillium chrysogenum and Trichoderma viride; experiment: Mold resistance of dip-treated wood stakes (ASTM D4445-91), mixed mold spore inoculum; assay type: cell-based; details: Example 4; unseasoned southern yellow pine stakes dip-treated 15 s, 4 weeks, 27° C., 70% RH; scale 0-5
From the text: The biocide compositions were first tested for the efficacy in preventing mold fungal growth. The mold fungi used in the mold growth analysis included Aspergillus niger 2.242 (available from University of Virginia, Charlottesville, Va.), Penicillium chrysogenum PH02 (an isolate provided by Forest Products Laboratory, Madison, Wis.) and Trichoderma viride ATCC 20476 (available from American Type Culture Collection, Rockville, Md.). The mold fungi were first prepared by growing the various mold fungi species on 2% malt agar. A mixed spore preparation was then prepared by washing the surface of a 2-week old culture of each fungus with 10 milliliters of sterile deionized (DI) water according to the American Society for Testing and Materials (ASTM) standard D4445-91 (1998). Spore suspensions were transferred to a spray bottle and diluted to 100 milliliters with DI water. The spray bottle was adjusted to deliver 1 milliliter inoculum/spray.
Specimens (7×20 millimeters cross section by 7 centimeters long) were cut from unseasoned southern yellow pine mill ends from a Mississippi sawmill and stored at 0° C. Average moisture content of the specimens was 48% by weight (n=3). Southern yellow pine oriented strand board (OSB) specimens (11×20 millimeters cross section by 7 centimeters long) were cut from a full sheet of OSB and conditioned to 70% relative humidity. Five replicate specimen stakes were dip-treated for approximately 15 seconds in each biocide composition and held in a covered container overnight according to the ASTM standard test method D4445-91 (1998). Specimens were then arranged over four layers of blotting paper that was saturated with 30 milliliters DI water and a polyethylene mesh spacer in sterile disposable Petri dishes (150×25 millimeters) (commercially available from B-D Falcon, Los Angeles, Calif.). Untreated stakes were dipped in DI water and served as Control A for water-based test chemicals. Additional stakes were dipped in 70% (by weight) ethanol to serve as Control B for test chemicals of low solubility. […]

[2] = system: Reticulotermes flavipes (Kollar); experiment: Termite bioassay, no-choice test procedure; assay type: in vivo; details: dip-treated southern yellow pine blocks, four weeks; for Termite Bioassay Mortality Rating: 1 gram of termites, 27° C., 80% RH; for Termite Bioassay Attack Rating: visual rating 10 (no attack), 9 light, 7 moderate, 4 heavy, 0 (complete failure)
From the text: The biocide compositions were additionally evaluated for their ability to inhibit termite infestation. Specifically, numerous samples of the subterranean termite, Reticulotermes flavipes (Kollar), were collected in Janesville, Wis. for a termite bioassay.
To begin the termite bioassay, pre-weighed and pre-conditioned southern yellow pine blocks (1×1×1 centimeter) (n=5) were dip-treated with either the biocide compositions prepared above or the individual components. Five control samples were prepared by dipping blocks into DI water.
Each block was conditioned to ensure all solvent had dissipated prior to being subjected to a termite bioassay according to no-choice test procedure (ASTM 1998). Each block was then placed in a lidded test dish with 50 grams sand, […] of DI water, and 1 gram of termites. The dishes were incubated at 27° C. and 80% relative humidity for four weeks. The dishes were examined after one and four weeks for tunneling and mortality. The mortality was scaled using a label of “none” (representing a mortality rating of 0%); “slight” (representing a mortality rating of from 1% to 33%); “moderate” (representing a mortality rating of from 34% to 66%) “heavy” (representing a mortality rating of from 67% to 99%); or “complete” (representing a mortality rating of 100%). At the end of the four-week test period, the blocks were removed from the dishes, cleaned, dried, re-conditioned and weighed to determine weight loss of the block, indicating the relative wood consumption of the block by the termites. Additionally, a visual rating of 10 (representing no attack); 9 (representing a light attack); 7 (representing a moderate attack); 4 (representing a heavy attack); or 0 (representing complete failure in inhibiting termite infestation), was recorded for each sample block.

P. placenta = experiment: Soil block test (AWPA E-10-01), brown-rot decay; assay type: cell-based, Postia placenta MAD 698; details: vacuum-treated southern yellow pine blocks, 12 weeks (Example 1 text; Example 4, FIG. 1)
Method: (§1) In addition to the mold fungi analysis above, the biocide compositions were tested for their efficacy in preventing decay fungal growth. The decay fungi used in the decay fungal growth analysis included Postia placenta MAD 698 (Fries) Lars. & Lomb., Gloeophyllum trabeum MAD 617 (Pers:Fries) Murrill, and Coriolus versicolor MAD 697 (L.:Fr.) Pilat. The decay fungi, all obtained from the Center of Forest Mycology Research (Forest Products Laboratory, Madison, Wis.) were maintained on 2% malt agar.
(§2) To test the biocide compositions' abilities to inhibit decay fungal growth, soil block culture bottles were prepared according to American Wood Preservers' Association (AWPA) E-10-01 (2003). Southern yellow pine feeders were inoculated with two brown-rot fungus, P. placenta and G. trabeum and maple feeders were inoculated with one white-rot fungus, C. versicolor. Bottles were incubated at 27° C. and 70% relative humidity for three weeks until the fungus completely colonized each feeder. […] The blocks were weighed and the average percentage weight loss was calculated. […]
(§3) To test the biocide compositions' abilities to inhibit decay fungal growth, soil block culture bottles were first prepared according to American Wood Preservers' Association (AWPA) E-10-01 (2003). […] The blocks were weighed and the average percentage weight loss was calculated.

G. trabeum = experiment: Soil block test (AWPA E-10-01), brown-rot decay; assay type: cell-based, Gloeophyllum trabeum MAD 617; details: vacuum-treated southern yellow pine blocks, 12 weeks (Example 1 text; Example 4, FIG. 1)
Method: as §1, §2, §3

C. versicolor = experiment: Soil block test (AWPA E-10-01), white-rot decay; assay type: cell-based, Coriolus versicolor MAD 697; details: vacuum-treated southern yellow pine blocks, 12 weeks (Example 1 text; Example 4, FIG. 1)
Method: as §1, §2, §3

| Compound | Average Weight Loss (%) (Coptotermes formosans) | Mold Resistance Average Rating, Southern Pine [1] | Termite Bioassay Mortality Rating [2] | Termite Bioassay Attack Rating [2] | Inhibition of decay by P. placenta, in words (P. placenta) | Inhibition of decay by G. trabeum, in words (G. trabeum) | Inhibition of decay by C. versicolor, in words (C. versicolor) |
| --- | --- | --- | --- | --- | --- | --- | --- |
| O.O.O.O.O=BOB1OB(OB=O)OB2OB([O-])OB([O-])OB(O1)O2.[Na+].[Na+] [Control B, disodium octaborate tetrahydrate] | 4.20 |  |  |  |  |  |  |
| C[C@@H](c1ncncc1F)[C@](O)(Cn1cncn1)c1ccc(F)cc1F [E, Voriconazole] |  | 0.04 | None | 0.0 |  |  |  |
| CC(C)c1cccc(O)c(=O)c1 [G, Thujaplicin (isopropyltropolone)] |  | 3.2 | None | 0.0 |  |  |  |
| c1ccc2[nH]c(-c3cscn3)nc2c1 [F, Thiabendazole] |  | 0.0 | None | 0.0 |  |  |  |
| Thujaplicin (isopropyltropolone) |  |  |  |  | did not inhibit decay | did not inhibit decay | did not inhibit decay |
